Reference: patent publication US12319675B2 (Artax Biopharma Inc., priority 2018, dated 2025)

Columns and labels:
[1] = system: CD3 mediated phosphorylation of ZAP70 in Jurkat cells; test: CD3 mediated phosphorylation of ZAP70 in Jurkat cells (HTRF); assay type: cell-based; details: Homo sapiens, Jurkat cells stimulated with 20 μg/mL anti-CD3 antibody
Protocol: Inhibition of CD3 mediated phosphorylation of ZAP70 in Jurkat cells was measured by a cellular based Homogeneous Time-Resolved Fluorescence (HTRF) assay utilizing a Total ZAP-70 HTRF kit.
Briefly, Jurkat cells (˜1.3×10^6 cells/mL) were harvested on the day of experimentation. Cells were washed with PBS and resuspended in Assay Buffer (RPMI 1640 media plus 10% FBS) and counted.
Jurkat cells were seeded in Assay media at a total volume of 4 μL/well (40K cells/well) in a 384-low volume white flat bottom plate. The cells were then incubated at 37° C./5% CO2 for 30 minutes. The cells were then treated in duplicate with test compounds (3×) and reference compounds (3×) in a total volume of 4 μL, respectively. A compound dilution scheme is exemplified in FIG. 1.
The plate was then transferred to an incubator maintained at 37° C./5% CO2 for 2 minutes. Following incubation, cells were stimulated with 20 μg/mL of anti-CD3 antibody (1 mg/mL stock) and assay media was used to bring the total well volume 4 μL/well. The plate was then transferred to the incubator maintained at 37° C./5% CO2 for 2.5 minutes. Following incubation, 4 μL of lysis buffer (4×) provided in the kit was added to each well. The plate was then incubated at RT for 1 hour with gentle shaking. Following incubation, 4 μL of detection mix was added to each well and the plate was sealed with a plate sealer and left overnight at RT in the dark.
The Envision reader was set-up for Eu^3+ cryptate and fluorescence emission was read at two different wavelengths (620 nm and 665 nm). • Excitation filter: UV2(TRF) 320 nm • Emission filter: 665 nm • 2nd Emission filter: Europium 615 nm • Measurement height (mm): 6.5 • Excitation light (%): 100 • Delay (μs): 50 • Window time (μs): 400 • Time between flashes (μs): 2000 • Number of flashes: 100 • Number of flashes for 2nd detector: 100
The data is represented by the signal form the two wavelengths:
The ratio of the signal is calculated for each individual well:
The data was plotted using Graph Pad Prism. The significance between untreated vs. treated groups was assessed by One-way ANOVA and Bonferroni posttest comparing all columns in the graph.
ZAP70 IC50 results are shown in Table 6 for select compounds of the invention. The compound numbers correspond to the compound numbers in Table 1. […] “ND” indicates not determined.
ZAP70 percent maximum inhibition results are shown in Table 7 for select compounds of the invention. The compound numbers correspond to the compound numbers in Table 1.

[2] = Microsomal stability assay, mouse; assay type: in vitro ADME; details: mouse microsomes, read-out: Microsomal Stability (T1/2 min) Mouse
Protocol: (§1) Microsomal stability assays were performed using mouse, rat, and human […] according to methods well-known in the art. Microsomal stability results are shown in Table 2 for selected compounds of the invention. The compound numbers correspond to the compound numbers in Table 1. […] “N/A” indicates not assayed.

[3] = target: Nck SH3 domain interaction with the proline rich sequence of TCR subunit CD3ε (Homo sapiens, UniProt P16333); test: Competitive binding, biosensor with Interferometric Optical Detection Method (IODM); details: ratio of 1:1 between Nck SH3 domain and inhibitors; biotinylated CD3ε peptide on sensing surface
Protocol: Inhibition of Nck SH3 domain interaction with the proline rich sequence of TCR subunit CD3ε was measured by optical read-out of a biosensor based on the Interferometric Optical Detection Method (IODM), using established methods (WO 2010/026269; WO 2014/020159; Laguna, M. et al., Sensors, 2015, 15(8):19819-29; and Holgado, M. et al., Sensors, 2014, 14(2): 3675-89).
Briefly, a Biophotonic Cell (BICELL) based on Fabry-Perot interferometers was used as the photonic transducer. The BICELL was fabricated using SU8 in cyclopentanone according to known methods (e.g., Laguna, M. F. et al., Sensors, 2014, 14(4): 6695-6700). Cured film was then treated with 95% sulfuric acid for 10 seconds. Streptavidin was then immobilized on the sensing surface in phosphate buffered saline (PBS; pH 7.4) over 20 min at 37° C. followed by blocking of the surface with 5% skin milk in PBS (pH 7.4). Biotinylated CD3ε peptide (SEQ ID NO: 001) in PBS (pH 7.4) was incubated with the streptavidin coated film to biofunctionalize the sensing surface (20 min at 37° C.).
Competitive binding assays were performed to determine the affinity reaction of inhibitors. The screening was carried out using a ratio of 1:1 between Nck SH3 domain and inhibitors. The optical readout of the biosensor was accomplished by a Fourier transform visible-infrared (FT-VIS-IR) spectrometer. Competitive binding results are shown in Table 3 for selected compounds of the invention. The compound numbers correspond to the compound numbers in Table 1. Compounds having a designation of “A” provide an Increased Relative Optical Power (ΔIROP) of less than or equal to thirty percent (≤30%); compounds having a designation of “B” provide a ΔIROP of between thirty and fifty percent (>30% to ≤50%); compounds having a designation of “C” provide an ΔIROP of between fifty and seventy percent (>50% to ≤70%); and compounds having a designation of “D” provide a ΔIROP of greater than seventy percent (>70%).

[4] = Microsomal stability assay, human; assay type: in vitro ADME; details: human microsomes, read-out: Microsomal Stability (T1/2 min) Human
Protocol: as §1

[5] = Microsomal stability assay, rat; assay type: in vitro ADME; details: rat microsomes, read-out: Microsomal Stability (T1/2 min) Rat
Protocol: as §1

SMILES: CN1CCN(C(=O)C2=C(c3ccc(F)cc3)c3ccccc3OC2)CC1 [Compound I-44]
- Emax ([1]; maximum inhibition, read-out: pZAP70 Inhibition - Maximum Percent Inhibition (% Inhibition)): 30 to 40%
- IC50 ([1]; read-out: pZAP70 Inhibition IC50): 1 to 10 nM
- half-life [2]: < 10 min
- ΔIROP (Increased Relative Optical Power) [3]: D (a ΔIROP of greater than seventy percent (>70%))
- half-life [4]: < 10 min
- half-life [5]: < 10 min
